{
  "source": "paper PMC11397024",
  "about": "“Strategic Fluorination to Achieve a Potent, Selective, Metabolically Stable, and Orally Bioavailable Inhibitor of CSNK2” (Molecules, 2024)",
  "key": {"[1]": {"assay": "Hepatocyte stability, mouse", "format": "in vitro ADME", "conditions": "male, CD-1, cryopreserved hepatocytes, over 2 h", "protocol": "Human cryopreserved hepatocytes were supplied by BioIVT (lot QZW, 10 pooled donors, Westbury, NY, USA). Mouse cryopreserved hepatocytes were supplied by BioIVT (lot ZPG, pooled male CD-1). Vials of cryopreserved hepatocytes were removed from storage and thawed in a 37 °C water bath with gentle shaking, and then the contents were poured into a 50 mL thawing medium conical tube. Vials were centrifuged at 100× g for 10 min at room temperature. The thawing medium was aspirated, and hepatocytes were resuspended with a serum-free incubation medium to yield ~1.5 × 10^6 cells/mL. Cell viability and density were counted using AO/PI fluorescence staining, and then cells were diluted with a serum-free incubation medium to a working cell density of 0.5 × 10^6 viable cells/mL. Aliquots of 198 μL of hepatocytes were dispensed into each well of a 96-well noncoated plate. The plate was placed in an incubator for approximately 10 min. […] Peak areas were determined from extracted ion chromatograms, and the slope value, k, was determined by linear regression of the natural logarithm of the remaining percentage of the parent drug vs. incubation time curve. The intrinsic clearance (CLint in μL/min/10^6 cells) was calculated using the relationship CLint = kV/N, where V is the incubation volume (0.2 mL) and N is the number of hepatocytes per well (0.1 × 10^6 cells). […]"}, "DYRK1A": {"target": "T1, DYRK1A (Homo sapiens, UniProt Q13627)", "T1 construct": "purchased Promega (NanoBRET Target Engagement K192 Kinase Selectivity System)", "assay": "NanoBRET dose-response DYRK1A", "format": "cell-based", "conditions": "IC50 not determined, poor assay window"}, "24 h PK study in mice": {"assay": "24 h PK study in mice", "format": "in vivo, CD-1 mice", "conditions": "for concentration at 24 h: mouse, CD-1 mice, below limit of quantification, read-out: plasma concentration at the 24 h time point", "protocol": "In the 24 h PK study, male CD-1 mice (6–8 weeks old, 20–30 g) were dosed by intravenous (i.v.), oral (p.o.), or intraperitoneal (i.p.) administration of compound 2. For i.v. administration, a single dose of compound 2 (3 mg/kg) was administered as 5 mL/kg of a 0.6 mg/mL solution in DMSO/PEG-400/Water (v/v/v, 10:30:60) to six mice. For p.o. administration, a single dose of compound 2 (10 mg/kg) was administered as 10 mL/kg of a 1 mg/mL solution in DMSO/PEG-400/Water (v/v/v, 10:30:60) to six mice. For i.p. administration, a single dose of compound 2 (10 mg/kg) was administered as 10 mL/kg of a 1 mg/mL solution in DMSO/PEG-400/Water (v/v/v, 10:30:60) to six mice. The mice had free access to water and food. At 0.083, 0.25, 0.5, 1, 2, 4, 8, 12, and 24 h post dose administration, 0.03 mL of blood was collected from the dorsal metatarsal vein of three mice at each time point. Each blood sample was transferred into a plastic microcentrifuge tube containing EDTA-K2 anticoagulant and mixed well with the anticoagulant then placed on ice prior to centrifugation at 4000× g for 5 min at 4 °C to obtain plasma. The samples were stored in a freezer at −75 ± 15 °C prior to analysis. At 12 h post dose administration and 24 h post dose administration, three mice were anesthetized using increasing concentrations of CO2, and lung samples were collected. Lung samples were quickly frozen in an ice box and stored at −75 ± 15 °C. Prior to analysis, all lung samples were weighed and homogenized with phosphate-buffered saline (PBS) in a lung weight (g)/buffer volume (mL) ratio of 1:3. The final concentration of the compound was calculated by multiplying the detected concentration by a dilution factor of four.\nConcentrations of the test compound in the plasma samples were determined using a Prominence LC-MS/MS system with a DGU-20A5R(C) degasser, LC-30AD pump, CBM-20A system controller, SIL-20AC HT autosampler; Rack changer II, HALO 90A ES-CN (2.7 μm, 2.1 × 50 mm) column, and AB Sciex Triple Quan 5500 LC/MS/MS instrument. The mobile phase was 5–95% MeCN in H2O, with 0.1% formic acid. The desired serial concentrations of working solutions were achieved by diluting the stock solution of the analyte with 50% acetonitrile in water. A series of 10 µL working solutions […] were added to 10 μL of blank plasma or lung homogenate to achieve calibration standards of 0.5, 1, 2, 5, 10, 50, 100, 500, 1000 ng/mL in a total volume of 20 μL. A total of 5 quality control samples at 1 ng/mL, 2 ng/mL, 5 ng/mL, 100 ng/mL, and 800 ng/mL were prepared independently of those used for the calibration curves in the same manner. A 20 μL standard, 20 μL QC sample, and 20 μL of an unknown sample (10 µL plasma or lung homogenate with 10 µL blank solution) were added to 200 μL of acetonitrile containing internal standard mixture for precipitating protein. Then, the samples were vortexed for 30 s. After centrifugation at 4 °C and 4000 rpm for 15 min, the supernatant was diluted with ultrapure water at a ratio of 1:2 (v/v, 1:2), then 20 µL of diluted supernatant was injected into the LC/MS/MS system for quantitative analysis. PK parameters were calculated from the mean plasma concentration versus time using a noncompartmental model in WinNonlin Phoenix version 8.3."}, "CLK2": {"target": "T2, CLK2 (Homo sapiens, UniProt P49760)", "T2 construct": "expressed in transfected cells; host or cells: HEK293", "T2 sequence (P49760 whole entry)": "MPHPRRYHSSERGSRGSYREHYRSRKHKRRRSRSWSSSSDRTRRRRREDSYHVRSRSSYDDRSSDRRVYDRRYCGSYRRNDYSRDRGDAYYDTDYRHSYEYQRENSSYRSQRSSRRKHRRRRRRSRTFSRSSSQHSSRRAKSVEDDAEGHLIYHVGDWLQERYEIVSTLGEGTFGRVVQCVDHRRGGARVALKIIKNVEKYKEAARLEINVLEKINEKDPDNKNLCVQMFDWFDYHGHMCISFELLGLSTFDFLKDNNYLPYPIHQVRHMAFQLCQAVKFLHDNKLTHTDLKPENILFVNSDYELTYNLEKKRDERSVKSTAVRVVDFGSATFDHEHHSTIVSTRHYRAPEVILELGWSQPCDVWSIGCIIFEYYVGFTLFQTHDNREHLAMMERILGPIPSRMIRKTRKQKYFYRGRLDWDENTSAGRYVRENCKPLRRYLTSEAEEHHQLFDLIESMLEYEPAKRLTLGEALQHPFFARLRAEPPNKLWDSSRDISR", "assay": "NanoBRET dose-response CLK2", "format": "cell-based", "conditions": "highest concentration tested 30 μM"}, "PHKG1": {"target": "T3, PHKG1 (Homo sapiens, UniProt Q16816)", "T3 construct": "purchased Promega (NanoBRET Target Engagement K192 Kinase Selectivity System)", "T3 sequence (Q16816 whole entry)": "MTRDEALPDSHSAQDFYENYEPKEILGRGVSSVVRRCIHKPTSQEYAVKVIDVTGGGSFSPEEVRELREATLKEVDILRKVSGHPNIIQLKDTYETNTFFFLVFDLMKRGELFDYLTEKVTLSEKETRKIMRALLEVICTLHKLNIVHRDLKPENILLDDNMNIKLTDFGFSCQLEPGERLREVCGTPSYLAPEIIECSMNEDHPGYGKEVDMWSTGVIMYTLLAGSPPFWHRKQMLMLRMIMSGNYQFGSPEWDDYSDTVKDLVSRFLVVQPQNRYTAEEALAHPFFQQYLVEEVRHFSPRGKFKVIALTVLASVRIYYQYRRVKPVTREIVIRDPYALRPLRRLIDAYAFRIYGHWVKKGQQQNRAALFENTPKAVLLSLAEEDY", "assay": "NanoBRET dose-response PHKG1", "format": "cell-based", "conditions": "highest concentration tested 30 μM"}, "[2]": {"conditions": "male, ip, CD-1 mouse plasma, 10 mg/kg i.p."}, "[3]": {"conditions": "male, iv, CD-1 mouse plasma, 3 mg/kg i.v."}, "[4]": {"conditions": "male, po, CD-1 mouse plasma, 10 mg/kg p.o."}},
  "note": "Read-outs that look alike come from different tables or passages of the source.",
  "data": [
    {"compound": "CCC(=O)Nc1cc(Nc2cc(NC3CC3)n3ncc(C#N)c3n2)c(F)cc1N1CCC[C@H](NC)C1", "note": "[Compound 2, (S)-N-(5-((3-cyano-7-(cyclopropylamino)pyrazolo[1,5-a]pyrimidin-5-yl)amino)-4-fluoro-2-(3-(methylamino)piperidin-1-yl)phenyl)propionamide]", "values": [
      {"measurement": "CLint scaled at 1 μM", "setting": "[1]", "value": 180, "unit": "mL/min/kg"},
      {"measurement": "occupancy in the dose-response experiment", "setting": "DYRK1A", "value": "no occupancy was observed up to 10 μM"},
      {"measurement": "AUC(0-t)", "setting": "24 h PK study in mice; [2]", "value": 10.1, "unit": "µM·h"},
      {"measurement": "Cmax", "setting": "24 h PK study in mice; [2]", "value": 2650, "unit": "nM"},
      {"measurement": "Tmax", "setting": "24 h PK study in mice; [2]", "value": 0.5, "unit": "h"},
      {"measurement": "half-life", "setting": "24 h PK study in mice; [2]", "value": 2.5, "unit": "h"},
      {"measurement": "AUC(0-t)", "setting": "24 h PK study in mice; [3]", "value": 1.87, "unit": "µM·h"},
      {"measurement": "half-life", "setting": "24 h PK study in mice; [3]", "value": 1.9, "unit": "h"},
      {"measurement": "Vd", "setting": "24 h PK study in mice; male, iv, CD-1 mouse plasma, 3 mg/kg i.v., read-out: Vdss", "value": 3.5, "unit": "L/kg"},
      {"measurement": "concentration at 24 h", "setting": "24 h PK study in mice; male, plasma, iv, 3 mg/kg i.v.", "value": "< 1.02", "unit": "nM"},
      {"measurement": "concentration at 24 h", "setting": "24 h PK study in mice; male, plasma, po, 10 mg/kg p.o.", "value": "< 1.02", "unit": "nM"},
      {"measurement": "bioavailability", "setting": "24 h PK study in mice; male, plasma, po, CD-1 mouse, 10 mg/kg p.o.", "value": 52, "unit": "%"},
      {"measurement": "AUC(0-t)", "setting": "24 h PK study in mice; [4]", "value": 3.13, "unit": "µM·h"},
      {"measurement": "Cmax", "setting": "24 h PK study in mice; [4]", "value": 563, "unit": "nM"},
      {"measurement": "Tmax", "setting": "24 h PK study in mice; [4]", "value": 2.7, "unit": "h"},
      {"measurement": "half-life", "setting": "24 h PK study in mice; [4]", "value": 2.1, "unit": "h"},
      {"measurement": "lung concentrations", "setting": "24 h PK study in mice; mice, 12 and 24 h post dose administration", "value": "accumulated in the lungs"},
      {"measurement": "IC50", "setting": "CLK2", "value": "> 30", "unit": "µM"},
      {"measurement": "IC50", "setting": "PHKG1", "value": "> 30", "unit": "µM"}
    ]}
  ]
}
